# Assay results: patent publication US20260209260A1, “VECTORIZED NHC IRIDIUM(III) COMPLEXES AND USE THEREOF IN PHOTODYNAMIC THERAPY AND/OR DIAGNOSTIC” (CENTRE NATIONAL DE LA RECHERCHE SCIENTIFIQUE, priority 2022, published 2026)
# Values joined by “and” are separate entries in the source; they are usually repeats but may differ in a detail not shown here. Equal values may be shown once. Read-outs that look alike come from different tables or passages of the source.
# Experiments:
# [1] = test system: C4-2B prostate cancer cells (PSMA-positive); experiment: Cell viability assay (MTT), dark and blue light; format: cell-based, Human; details: for Photosensitizing index (PI): dark vs blue light; for SI (vs MC3T3) C4-2b Blue / SI (vs NIH-3T3) C4-2b Blue: blue light 458 nm
# Procedure, shortened: (§1)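 Two parallel arms: continuous 72 h dark exposure, or 8 h preincubation followed by 10 min blue light at 458 nm (9.6 W LEDs) and further dark incubation to 72 h. Final DMSO 0.1% (v/v); MTT formazan read at 570 nm, triplicate runs repeated at least three times.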
# [2] = test system: PC-3 prostate cancer cells (PSMA-negative); experiment: Cell viability assay (MTT), dark and blue light; format: cell-based, Human; details: for Photosensitizing index (PI): PC3, dark vs blue light
# Procedure, shortened: as §1
# [3] = test system: cancer cells (all tumor cell lines tested); experiment: Cell viability assay (MTT), summary over the cancer cell lines tested; format: cell-based, Human; details: for GI50: blue light 458 nm, read-out: GI50 mean over cancer cells, irradiated; for PI values, mean over cancer cells: dark vs blue light 458 nm; for increase in cell toxicity in cancer cells compared to non-tumor models: irradiated conditions
# Method: (§2) Cells were grown in humidified incubators at 37° C. in 5% CO2. Murine MC3T3 osteoblast and NIH-3T3 fibroblast cells-used as non-tumor cell models-were cultured in a-MEM medium and DMEM medium supplemented with 10% fetal bovine serum (FBS) and 1% Penicillin/Streptomycin (P/S) antibiotics, respectively. Human T24 bladder, MGHU3 bladder, Scaber bladder, A549 lung, MCF7 breast, MiaPaCa2 pancreas cancer cells were cultured in DMEM medium supplemented with 10% FBS and 1% P/S antibiotics. […] Human Hela cervix and HepG2 liver cancer cells were cultured EMEM medium supplemented with 10% FBS and 1% P/S antibiotics.
# (§3) MTT reagent (3-(4,5-dimethylthiazol-2-yl)-2,5-diphenyltetrazolium bromide) was used to determine cell death as originally described by Mosmann. Briefly, cells were seeded from 5,000 to 10,000 cells/well in 24-well plates (1 mL) depending on the cell type and allowed to attach overnight. The complexes were prepared in DMSO. The concentration of the complexes was calculated based on the elemental composition of the complexes determined by the elemental analyses. All cell viability experiments were carried out with a fixed concentration of 0.1% (v/v) DMSO. After 72 h of treatment, cells were incubated at 37° C. and 5% CO2 with 25 μL of MTT solution (5 mg/ml; Sigma-Aldrich) in 24-well plates for 3 to 4 h. After solubilization with 500 μL of DMSO, formazan was quantified spectrophotometrically with a microplate reader at 570 nm absorbance (ClarioSTAR, BMG LabTech). […] All the results were calculated from data obtained in at least three independent experiments performed in triplicate.
# (§4) Two sets of experiments were conducted in parallel for each complex to be studied:
# (§5) 1. The cells were incubated with the different complexes (in the dark) for 72 h.
# (§6) 2. The cells were incubated for 8 h with the different complexes (in the dark), then irradiated for 10 min, followed by an incubation in the dark up to 72 h.
# [4] = test system: non-tumor cells (NIH-3T3 and MC3T3); experiment: Cell viability assay (MTT), summary over the non-tumor models; format: cell-based, Murine; details: for GI50: blue light 458 nm, read-out: GI50 mean over non-tumor models, irradiated; for mean PI value in NIH-3T3 and MC3T3 non-tumoral cells: dark vs blue light 458 nm
# Method: as §2, §3, §4, §5, §6
# [5] = test system: A549 lung cancer cells; experiment: Cell viability assay (MTT), dark and blue light; format: cell-based, Human; details: for GI50: read-out: GI50; for Photosensitizing index (PI): A549, dark vs blue light
# Procedure, shortened: (§7)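 Cells seeded at 5,000–10,000/well, attached overnight, then exposed to complexes in DMSO (final 0.1% v/v) for 72 h in the dark, or for 8 h dark followed by 10 min irradiation and dark incubation to 72 h. MTT added 3–4 h at 37 °C; formazan dissolved in DMSO, read at 570 nm.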
# [6] = test system: T24 bladder cancer cells; experiment: Cell viability assay (MTT), dark and blue light; format: cell-based, Human; details: for GI50: read-out: GI50; for Photosensitizing index (PI): T24, dark vs blue light
# Procedure, shortened: as §7
# [7] = test system: MCF7 breast cancer cells; experiment: Cell viability assay (MTT), dark and blue light; format: cell-based, Human; details: for Photosensitizing index (PI): MCF7, dark vs blue light; for GI50: read-out: GI50
# Procedure, shortened: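 Cells seeded 5,000–10,000/well, treated in 0.1% (v/v) DMSO either 72 h in dark or 8 h dark, 10 min 458 nm blue LED irradiation (9.6 W), then dark to 72 h. Viability by MTT, absorbance 570 nm; at least three independent experiments in triplicate.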
# [8] = C4-2b, blue light, read-out: GI50
# [9] = 8 h in the dark, blue light 458 nm 10 min, then dark up to 72 h, read-out: GI50 PC-3 Blue
# [10] = PC3, blue light, read-out: GI50
# [11] = in the dark, 72 h, read-out: GI50 PC-3 Dark
SMILES,"GI50 [2, 10] [µM]",Photosensitizing index (PI) [2],"GI50 ([2]; PC3, dark, read-out: GI50) [µM]","selectivity for cancer cells over non-tumor cells, in words [3]",GI50 [4] [µM],"GI50 ([5]; A549, blue light) [µM]","SI (vs MC3T3) ([5]; A549, dark)",Photosensitizing index (PI) [5],"SI (vs MC3T3) ([6]; T24, blue light)","SI (vs NIH-3T3) ([6]; T24, blue light)","GI50 ([6]; T24, blue light) [µM]","SI (vs NIH-3T3) ([6]; T24, dark)",Photosensitizing index (PI) [6],"SI (vs NIH-3T3) ([7]; MCF7, blue light)","SI (vs MC3T3) ([7]; MCF7, dark)","SI (vs NIH-3T3) ([7]; MCF7, dark)",Photosensitizing index (PI) [7],"GI50 ([7]; MCF7, dark)","PI values, mean over cancer cells [3] [fold]",mean PI value in NIH-3T3 and MC3T3 non-tumoral cells [4] [fold],further results
F[P-](F)(F)(F)(F)F.O=C(O)CC[C@H](NC(=O)N[C@@H](CCCCNC(=O)CCn1cc[n+]2[c]1[Ir-3]13([c]4ccccc4-c4c5ccccc5cc[n+]41)([c]1ccccc1-c1c4ccccc4cc[n+]13)[n+]1ccccc1-2)C(=O)O)C(=O)O [III-h],0.68,31.2,21.2,most selective effects under irradiated conditions,22.8,,,,,,,,,,,,,,,,"GI50 ([1]; 8 h in the dark, blue light 458 nm 10 min, then dark up to 72 h, read-out: GI50 C4-2b Blue): 0.31 µM; GI50 [1, 8]: 0.31 µM; Photosensitizing index (PI) ([1]; C4-2b): 12.9; GI50 ([1]; C4-2b, dark, read-out: GI50): 4 µM; SI (vs MC3T3) C4-2b Blue [1]: 27.0; SI (vs NIH-3T3) C4-2b Blue [1]: 61.9; SI (vs MC3T3) C4-2b Dark ([1]; dark): 13.0; GI50 [2, 9]: 0.68 µM; SI (vs MC3T3) PC-3 Blue ([2]; blue light 458 nm): 12.2; SI (vs NIH-3T3) PC-3 Blue ([2]; blue light 458 nm): 28.0; GI50 [2, 11]: 21.2 µM"
F[P-](F)(F)(F)(F)F.O=C(O)CC[C@H](NC(=O)N[C@@H](CCCCNC(=O)CCn1cc[n+]2[c]1[Ir-3]13([c]4ccccc4-c4sc5ccccc5[n+]41)([c]1ccccc1-c1sc4ccccc4[n+]13)[n+]1ccccc1-2)C(=O)O)C(=O)O [III-k],2.1,4.6,9.6,most selective effects under irradiated conditions,22.8,,,,,,,,,,,,,,,,"GI50 [1, 8]: 0.41 µM; Photosensitizing index (PI) ([1]; C4-2b): 12.9; GI50 ([1]; C4-2b, dark, read-out: GI50): 5.3 µM; SI (vs MC3T3) C4-2b Blue [1]: 83.3; SI (vs NIH-3T3) C4-2b Blue [1]: 73.9; SI (vs MC3T3) C4-2b Dark ([1]; dark): 17.9; GI50 ([1]; in the dark, 72 h, read-out: GI50 C4-2b Dark): 5.3 µM; GI50 [2, 9]: 2.1 µM; SI (vs NIH-3T3) PC-3 Blue ([2]; blue light 458 nm): 14.3; SI (vs MC3T3) PC-3 Dark ([2]; dark): 9.9; GI50 [2, 11]: 9.8 µM"
F[P-](F)(F)(F)(F)F.O=C(NCCCn1cc[n+]2[c]1[Ir-3]13([c]4ccccc4-c4c5ccccc5cc[n+]41)([c]1ccccc1-c1c4ccccc4cc[n+]13)[n+]1ccccc1-2)[c-]1cccc1.[Fe+2].c1cc[cH-]c1 [IV-h],0.058,22.4,1.3,most selective effects under irradiated conditions,4.45,0.27,3.4,18.9,45.0,44.0,0.1,10.2,13.0,15.7,2.9,2.2,21.4,6 µM,20.1,2.8,"GI50 ([6]; T24, dark): 1.3 µM; SI (vs MC3T3) ([2]; PC3, blue light): 77.6; SI (vs NIH-3T3) ([2]; PC3, dark): 10.2; GI50 [3]: 0.155 µM; increase in cell toxicity in cancer cells compared to non-tumor models [3]: 29 fold"
F[P-](F)(F)(F)(F)F.O=C(NCCCn1cc[n+]2[c]1[Ir-3]13([c]4cccc5ccc6ccc[n+]1c6c45)([c]1cccc4ccc5ccc[n+]3c5c14)[n+]1ccccc1-2)[c-]1cccc1.[Fe+2].c1cc[cH-]c1 [IV-i],0.27,21.9,,,,1,2.2,4.6,27.2,50.4,0.35,23.2,5.1,28.7,1.9,7.8,8.5,5.3 µM,1.6,2.8,"SI (vs NIH-3T3) ([5]; A549, blue light): 17.8; GI50 ([5]; A549, dark): 4.6 µM; SI (vs MC3T3) ([2]; PC3, dark): 1.7; SI (vs NIH-3T3) ([2]; PC3, dark): 7.0"
F[P-](F)(F)(F)(F)F.O=C(NCCCn1cc[n+]2[c]1[Ir-3]13([c]4c(sc5ccccc45)-c4cccc[n+]41)([c]1c(sc4ccccc14)-c1cccc[n+]13)[n+]1ccccc1-2)[c-]1cccc1.[Fe+2].c1cc[cH-]c1 [IV-j],,121.7,7.3,most selective effects under irradiated conditions,8.4,0.37,2.5,17.6,,108.5,0.13,22.7,21.5,,,9.5,15.7,6.6 µM,39.8,2.8,"SI (vs NIH-3T3) ([5]; A549, dark): 9.7; GI50 ([5]; A549, dark): 6.5 µM; GI50 ([6]; T24, dark): 2.8 µM; GI50 ([7]; MCF7, blue light): 0.72 µM and 0.42 µM; SI (vs MC3T3) ([2]; PC3, dark): 2.2; GI50 [3]: 0.228 µM; increase in cell toxicity in cancer cells compared to non-tumor models [3]: 39 fold"
F[P-](F)(F)(F)(F)F.O=C(NCCCn1cc[n+]2[c]1[Ir-3]13([c]4ccccc4-c4sc5ccccc5[n+]41)([c]1ccccc1-c1sc4ccccc4[n+]13)[n+]1ccccc1-2)[c-]1cccc1.[Fe+2].c1cc[cH-]c1 [IV-k],,7.9,1.1,,,0.34,2.7,11.2,27.0,,,20.9,4.7,18.7,1.8,3.2,9.4,6.8 µM and 5.8 µM,1.8,2.8,"SI (vs MC3T3) ([5]; A549, blue light): 15.0; SI (vs NIH-3T3) ([5]; A549, blue light): 34.2; GI50 ([5]; A549, dark): 3.8 µM; SI (vs MC3T3) ([6]; T24, dark): 11.4; SI (vs MC3T3) ([7]; MCF7, blue light): 8.2; GI50 ([7]; MCF7, blue light): 0.62 µM; SI (vs MC3T3) ([2]; PC3, blue light): 37.0; SI (vs NIH-3T3) ([2]; PC3, dark): 17.3"
